In patent publication US20230203044A1, “PYRAZOLO[1,5-D][1,2,4]TRIAZINE-5(4H)-ACETAMIDES AS INHIBITORS OF THE NLRP3 INFLAMMASOME” (JANSSEN PHARMACEUTICA NV, priority 2020, published 2023) one finds IC50 and EC50 data, which are given here for 42 compounds.

Each structure is given as a SMILES string. pEC50, pIC50: −log10 of the molar value. Read-outs that look alike come from different tables or passages of the source. Some results are limits rather than exact numbers.

One assay deals with NLRP3 inflammasome. Description: PBMC assay: IL-1β in LPS-stimulated human PBMCs (MSD). Format: cell-based. Particulars: read-out: IL1β IC50. As to the method:
The activity of a compound according to the present invention can be assessed by in vitro methods.
Peripheral venous blood was collected from healthy individuals and human peripheral blood mononuclear cells (PBMCs) were isolated from blood by Ficoll-Histopaque (Sigma-Aldrich, A0561) density gradient centrifugation. After isolation, PBMCs were stored in liquid nitrogen for later use. Upon thawing, PBMC cell viability was determined in growth medium (RPMI media supplemented with 10% fetal bovine serum, 1% Pen-Strep and 1% L-glutamine). […] PBMCs were added at a density of 7.5×10^4 cells per well and incubated for 30 min in a 5% CO2 incubator at 37° C. LPS stimulation was performed by addition of 100 ng/ml LPS (final concentration, Invivogen, tlrl-smlps) for 6 hrs followed by collection of cellular supernatant and the analysis of IL-1β (μM) and TNF cytokines levels (μM) via MSD technology according to manufacturers' guidelines (MSD, K151A0H).

The test system of the next assay is TNF. As to the kind of experiment: PBMC assay: TNF cytokine levels in LPS-stimulated human PBMCs (MSD). Particulars: 100 ng/ml LPS for 6 hrs, TNF in supernatant via MSD. It counts as cell-based. As to the method: Peripheral venous blood was collected from healthy individuals and human peripheral blood mononuclear cells (PBMCs) were isolated from blood by Ficoll-Histopaque (Sigma-Aldrich, A0561) density gradient centrifugation. After isolation, PBMCs were stored in liquid nitrogen for later use. Upon thawing, PBMC cell viability was determined in growth medium (RPMI media supplemented with 10% fetal bovine serum, 1% Pen-Strep and 1% L-glutamine). Compounds were spotted in a 1:3 serial dilution in DMSO and diluted to the final concentration in 30 μl medium in 96 well plates (Falcon, 353072). PBMCs were added at a density of 7.5×10^4 cells per well and incubated for 30 min in a 5% CO2 incubator at 37° C. LPS stimulation was performed by addition of 100 ng/ml LPS (final concentration, Invivogen, tlrl-smlps) for 6 hrs followed by collection of cellular supernatant and the analysis of IL-1β (μM) and TNF cytokines levels (μM) via MSD technology according to manufacturers' guidelines (MSD, K151A0H).
The IC50 values (for IL-1β) and EC50 values (TNF) were obtained on compounds of the invention/examples, and are depicted in the following table: […]

The mark [1] stands for this setting: human PBMCs, 100 ng/ml LPS for 6 hrs, IL-1β in supernatant via MSD.

Regarding `Cc1nn(CC(=O)N[C@@H]2COC[C@H]2N2CCCCC2)c(=O)c2cc(C3CC3)nn12` [Final Cpd 54], the pIC50 in the assay on NLRP3 inflammasome (Homo sapiens, 6 h) is < 5.00. Further, in the assay on TNF, the pEC50 is < 5.00. `CC(C)c1nn(CC(=O)Nc2ccc(C(F)F)nc2)c(=O)c2cc(C3CC3)nn12` [Final Cpd 116]: the pIC50 with NLRP3 inflammasome (setting [1]) was 5.91. In the assay on TNF, the pEC50 was < 5.00.

On to `CCc1nn(CC(=O)Nc2ccncn2)c(=O)c2cc(C(C)C)nn12` [Final Cpd 16], for which, in the assay on NLRP3 inflammasome (setting [1]), the pIC50 was 6.08. Moreover, the pEC50 in the assay on TNF was < 5.00. The like results for `C[C@]1(O)C[C@@H](NC(=O)Cn2nc(CC3CCOC3)n3nc(C4CC4)cc3c2=O)C1` (stereo partly shown) [Final Cpd 197] were, in that order, < 5.00 and < 5.00. The like results for `CC(C)c1cc2c(=O)n(CC(=O)Nc3ccncn3)nc(N(C)C)n2n1` [Final Cpd 147] were, in that order, 6.40 and < 5.00. As for `Cc1nn(CC(=O)N[C@]23CC[C@H](CC2)C3)c(=O)c2cc(C3CC3)nn12` [Final Cpd 64], the pIC50 in the assay with NLRP3 inflammasome (setting [1]) was 5.26. The pEC50 in the assay with TNF was < 5.00. The like results for `CC(C)c1nn(CC(=O)Nc2ccc3nnnn3n2)c(=O)c2cc(C3CC3)nn12` [Final Cpd 169] were, in that order, 6.80 and < 5.00. For the compound `COCCNc1nn(CC(=O)Nc2ccc3nncn3c2)c(=O)c2cc(C3CC3)nn12` [Final Cpd 39], in the assay on NLRP3 inflammasome (setting [1]), the pIC50 was 5.60. The pEC50 with TNF was < 5.00. The like results for `CC(C)c1nn(CC(=O)N[C@@H]2CCCNC2)c(=O)c2cc(C3CC3)nn12` [Final Cpd 187, (R)-2-(2-cyclopropyl-7-isopropyl-4-oxopyrazolo[1,5-d][1,2,4]triazin-5(4H)-yl)-N-(piperidin-3-yl)acetamide] were, in that order, 6.10 and < 5.00. Take `Cc1nn(CC(=O)N[C@H]2C[C@@H](OCc3ccccc3Cl)C2)c(=O)c2cc(C3CC3)nn12` [Final Cpd 53]: in the assay on NLRP3 inflammasome (setting [1]), the pIC50 is < 5.00. Moreover, the pEC50 in the assay with TNF was < 5.00. On to `COc1cncc(NC(=O)Cn2nc(C(C)C)n3nc(C4CC4)cc3c2=O)c1` [Final Cpd 121], for which, in the assay with NLRP3 inflammasome (setting [1]), the pIC50 was 5.51. Also, the pEC50 in the assay with TNF is < 5.00. Turning to `CC(C)c1nn(CC(=O)N[C@H]2C[C@@](C)(O)C2)c(=O)c2c(F)c(C3CC3)nn12` [Final Cpd 43], in the assay with NLRP3 inflammasome (setting [1]), the pIC50 is 5.97. In the assay with TNF, the pEC50 is < 5.00. The like results for `CN(C)c1nn(CC(=O)Nc2ccc3nncn3c2)c(=O)c2cc(C3CC3)nn12` [Final Cpd 37] were, in that order, 6.25 and < 5.00. For the compound `CC(C)c1nn(CC(=O)Nc2ccc3nncn3c2)c(=O)c2cc(C3CC3)nn12` [Final Cpd 80], the pIC50 in the assay with NLRP3 inflammasome (setting [1]) is 7.10. Moreover, the pEC50 with TNF is < 5.00. The like results for `CC(C)c1nn(CC(=O)Nc2ccc3ncnn3c2)c(=O)c2cc(C3CC3)nn12` [Final Cpd 82] were, in that order, 6.55 and < 5.00. The like results for `CC(C)c1cc2c(=O)n(CC(=O)N[C@H]3C[C@@](C)(O)C3)nc(N(C)C)n2n1` [Final Cpd 150] were, in that order, 6.44 and < 5.00. The like results for `CC(C)c1nn(CC(=O)Nc2ccc3nncn3c2)c(=O)c2cc(C(O)C(F)(F)F)nn12` (stereo not shown) [Final Cpd 157] were, in that order, < 5.00 and < 5.00. Take `CCc1cc2c(=O)n(CC(=O)Nc3ccnnc3)nc(C(C)C)n2n1` [Final Cpd 141]: in the assay on NLRP3 inflammasome (setting [1]), the pIC50 is 6.38. The pEC50 in the assay with TNF is < 5.00. The like results for `CCc1nn(CC(=O)NC2CC2)c(=O)c2ccnn12` [Final Cpd 76, N-cyclopropyl-2-(7-ethyl-4-oxopyrazolo[1,5-d][1,2,4]triazin-5(4H)-yl)acetamide] were, in that order, < 5.00 and < 5.00. The like results for `Cc1nn(CC(=O)N[C@H]2C[C@H](N(C)Cc3ccccc3)C2)c(=O)c2cc(C3CC3)nn12` [Final Cpd 52] were, in that order, 5.64 and < 5.00. The like results for `CCCc1cc2c(=O)n(CC(=O)Nc3ccnnc3)nc(C(C)C)n2n1` [Final Cpd 145] were, in that order, 6.29 and < 5.00.

Consider `CCNc1cc2c(=O)n(CC(=O)Nc3ccc(=O)n(C)n3)nc(C(C)C)n2n1` [Final Cpd 74], for which the pIC50 in the assay on NLRP3 inflammasome (setting [1]) was 6.66. Further, the pEC50 in the assay on TNF is < 5.00. The like results for `CCc1cc2c(=O)n(CC(=O)Nc3ccncn3)nc(CC)n2n1` [Final Cpd 13] were, in that order, 5.77 and < 5.00. The like results for `CC(C)c1nn(CC(=O)Nc2ccncn2)c(=O)c2cc(C(C)(C)C)nn12` [Final Cpd 70] were, in that order, 6.21 and < 5.00. The like results for `CC(C)c1nn(CC(=O)N[C@H]2CCC(=O)N(CC3CC3)C2)c(=O)c2cc(C3CC3)nn12` [Final Cpd 27] were, in that order, 6.00 and < 5.00. As for `CC(C)c1nn(CC(=O)Nc2cncc(Cl)c2)c(=O)c2cc(C3CC3)nn12` [Final Cpd 117], the pIC50 in the assay on NLRP3 inflammasome (setting [1]) is 5.85. Further, the pEC50 in the assay on TNF was < 5.00. For the compound `Cc1ncccc1NC(=O)Cn1nc(C(C)C)n2nc(C3CC3)cc2c1=O` [Final Cpd 113], the pIC50 with NLRP3 inflammasome (setting [1]) was 6.07. Besides, the pEC50 with TNF is < 5.00. Regarding `CC(C)c1cc2c(=O)n(CC(=O)Nc3ccnnc3)nc(N(C)C)n2n1` [Final Cpd 149], the pIC50 in the assay with NLRP3 inflammasome (setting [1]) was 6.11. The pEC50 in the assay with TNF is < 5.00. As for `C=C(OCC)c1cc2c(=O)n(CC(=O)Nc3ccncn3)nc(C(C)C)n2n1` [Final Cpd 179, 2-(2-(1-ethoxyvinyl)-7-isopropyl-4-oxopyrazolo[1,5-d][1,2,4]triazin-5(4H)-yl)-N-(pyrimidin-4-yl)acetamide], the pIC50 in the assay with NLRP3 inflammasome (setting [1]) is < 5.00. For the same compound, the pEC50 with TNF is < 5.00.

Take `CC(C)c1nn(CC(=O)N[C@@H]2CCCN(C3CCC3)C2)c(=O)c2cc(C3CC3)nn12` [Final Cpd 9]: in the assay with NLRP3 inflammasome (setting [1]), the pIC50 is > 6.92. For the same compound, in the assay on TNF, the pEC50 is < 5.00. For the compound `C[C@]1(O)C[C@@H](NC(=O)Cn2nc(CCCC(F)(F)F)n3nc(C4CC4)cc3c2=O)C1` [Final Cpd 195, 2-(2-cyclopropyl-4-oxo-7-(4,4,4-trifluorobutyl)pyrazolo[1,5-d][1,2,4]triazin-5(4H)-yl)-N-((ls,3s)-3-hydroxy-3-methylcyclobutyl)acetamide], the pIC50 in the assay on NLRP3 inflammasome (setting [1]) is < 5.00. The pEC50 in the assay on TNF is < 5.00. Consider `COc1ncccc1NC(=O)Cn1nc(C(C)C)n2nc(C3CC3)cc2c1=O` [Final Cpd 106], for which the pIC50 with NLRP3 inflammasome (setting [1]) is 6.15. Besides, the pEC50 with TNF was < 5.00. Consider `CC(C)c1nn(CC(=O)Nc2ccncn2)c(=O)c2cc(I)nn12` [Final Cpd 2, 2-(2-iodo-7-isopropyl-4-oxo-pyrazolo[1,5-d][1,2,4]triazinyl)-N-pyrimidin-4-yl-acetamide], for which the pIC50 with NLRP3 inflammasome (setting [1]) was > 6.92. In the assay on TNF, the negative logarithm of the EC50 (pEC50) is < 5.00. The like results for `CC(C)c1nn(CC(=O)Nc2ccc3ncoc3c2)c(=O)c2cc(C3CC3)nn12` [Final Cpd 100] were, in that order, 6.51 and < 5.00. The like results for `CC(C)c1nn(CC(=O)Nc2ccc(Cl)nc2)c(=O)c2cc(C3CC3)nn12` [Final Cpd 110] were, in that order, 6.23 and < 5.00.

Consider `COc1nn(CC(=O)N[C@H]2C[C@@](C)(O)C2)c(=O)c2cc(C3CC3)nn12` [Final Cpd 139], for which the pIC50 with NLRP3 inflammasome (setting [1]) is 5.18. Moreover, in the assay on TNF, the pEC50 was < 5.00. The like results for `Cc1nn(CC(=O)N[C@@H]2COC[C@@H]2CC(C)C)c(=O)c2cc(C3CC3)nn12` [Final Cpd 55] were, in that order, < 5.00 and < 5.00. The like results for `CC(C)c1nn(CC(=O)Nc2ccc(I)nn2)c(=O)c2cc(C3CC3)nn12` [Final Cpd 173] were, in that order, < 5.00 and < 5.00.

As for `CC(C)c1cc2c(=O)n(CC(=O)Nc3ccncn3)nc(C(C)C)n2n1` [Final Cpd 3], in the assay with NLRP3 inflammasome (setting [1]), the pIC50 is 6.55. In the assay on TNF, the negative-log EC50 (pEC50) is < 5.00. As to `CC(C)c1nn2c(N(C)C)nn(CC(=O)Nc3ccncn3)c(=O)c2c1Br` [Final Cpd 151], in the assay on NLRP3 inflammasome (setting [1]), the pIC50 was < 5.00. Moreover, the pEC50 with TNF was < 5.00. For the compound `CCOC(=O)C1CC(Cc2cc3c(=O)n(CC(=O)Nc4ccnnc4)nc(C(C)C)n3n2)C1` (stereo not shown) [Final Cpd 177, ethyl 3-((7-isopropyl-4-oxo-5-(2-oxo-2-(pyridazin-4-ylamino)ethyl)-4,5-dihydropyrazolo[1,5-d][1,2,4]triazin-2-yl)methyl)cyclobutane-1-carboxylate], in the assay with NLRP3 inflammasome (setting [1]), the pIC50 is 5.69. As to `CC(C)c1nn(CC(=O)N[C@H]2CN(C3CCC3)CC[C@H]2O)c(=O)c2cc(C3CC3)nn12` [Final Cpd 191, N-((3 S,4R)-1-cyclobutyl-4-hydroxypiperidin-3-yl)-2-(2-cyclopropyl-7-isopropyl-4-oxopyrazolo[1,5-d][1,2,4]triazin-5(4H)-yl)acetamide], the pEC50 in the assay on TNF is < 5.00.
